Measured values: ChEMBL document CHEMBL1201862, “PubChem BioAssay data set” (2004)
“And” between values parts separate entries of the source, which are not always exact repeats. Equal values may be shown once.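 Five concentrations, 48 hours, 96-well plates. GI50 = concentration required for 50% inhibition of growth.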 The source made the active and inactive calls. No stated cut-off is given here; in the data, active = GI50 up to about 1.1 µM and inactive = higher.

Key:
Experiment in all cases: inhibition of tumour cell growth, NCI panel, 48 h
A549 = test system: A549
DMS-273 = test system: DMS-273
RXF 631 = test system: RXF 631
SW-620 = test system: SW-620
KM12 = test system: KM12
SNB-75 = test system: SNB-75
IGROV-1 = test system: IGROV-1
NCI-H23 = test system: NCI-H23
HCC 2998 = test system: HCC 2998
M19-MEL = test system: M19-MEL
HOP-62 = test system: HOP-62
COLO 205 = test system: COLO 205
LOX IMVI = test system: LOX IMVI
NCI-H522 = test system: NCI-H522
786-0 = test system: 786-0
NCI-H460 = test system: NCI-H460
OVCAR-4 = test system: OVCAR-4
SR = test system: SR
HOP-18 = test system: HOP-18
NCI-H226 = test system: NCI-H226
SF-295 = test system: SF-295
UO-31 = test system: UO-31
CAKI-1 = test system: CAKI-1
K562 = test system: K562
SNB-78 = test system: SNB-78
Malme-3M = test system: Malme-3M
OVCAR-3 = test system: OVCAR-3
SK-MEL-2 = test system: SK-MEL-2
M14 = test system: M14
KM-20L2 = test system: KM-20L2
CCRF-CEM = test system: CCRF-CEM
SNB-19 = test system: SNB-19
SK-OV-3 = test system: SK-OV-3
HCT-15 = test system: HCT-15
ACHN = test system: ACHN
DLD-1 = test system: DLD-1
HCT-116 = test system: HCT-116
UACC-257 = test system: UACC-257
OVCAR-8 = test system: OVCAR-8
RPMI-8226 = test system: RPMI-8226
MOLT-4 = test system: MOLT-4
TK-10 = test system: TK-10
OVCAR-5 = test system: OVCAR-5
SK-MEL-5 = test system: SK-MEL-5
SN12C = test system: SN12C
HL-60 = test system: HL-60
A498 = test system: A498
HT-29 = test system: HT-29
U-251 = test system: U-251
LXFL 529 = test system: LXFL 529
EKVX = test system: EKVX
SF-539 = test system: SF-539
UACC-62 = test system: UACC-62
HOP-92 = test system: HOP-92
XF498 = test system: XF498
SF-268 = test system: SF-268
RXF 393 = test system: RXF 393
SK-MEL-28 = test system: SK-MEL-28
DMS-114 = test system: DMS-114

O/N=C/c1cc2c(cc1Br)OCO2
GI50 (A549): > 100 µM (inactive)
GI50 (DMS-273): > 100 µM (inactive)
GI50 (RXF 631): > 100 µM (inactive)
GI50 (SW-620): > 100 µM (inactive)
GI50 (KM12): > 100 µM (inactive)
GI50 (SNB-75): > 100 µM (inactive)
GI50 (IGROV-1): > 100 µM (inactive)
GI50 (NCI-H23): > 100 µM (inactive)
GI50 (HCC 2998): > 100 µM (inactive)
GI50 (M19-MEL): > 100 µM (inactive)
GI50 (HOP-62): > 100 µM (inactive)
GI50 (COLO 205): > 100 µM (inactive)
GI50 (LOX IMVI): > 100 µM (inactive)
GI50 (NCI-H522): > 100 µM (inactive)
GI50 (786-0): > 100 µM (inactive)
GI50 (NCI-H460): > 100 µM (inactive)
GI50 (OVCAR-4): > 100 µM (inactive)
GI50 (SR): > 100 µM (inactive)
GI50 (HOP-18): > 100 µM (inactive)
GI50 (NCI-H226): > 100 µM (inactive)
GI50 (SF-295): > 100 µM (inactive)
GI50 (UO-31): > 100 µM (inactive)
GI50 (CAKI-1): > 100 µM (inactive)
GI50 (K562): > 100 µM (inactive)
GI50 (SNB-78): > 100 µM (inactive)
GI50 (Malme-3M): > 100 µM (inactive)
GI50 (OVCAR-3): > 100 µM (inactive)
GI50 (SK-MEL-2): > 100 µM (inactive)
GI50 (M14): > 100 µM (inactive)
GI50 (KM-20L2): > 100 µM (inactive)
GI50 (CCRF-CEM): > 100 µM (inactive)
GI50 (SNB-19): > 100 µM (inactive)
GI50 (SK-OV-3): > 100 µM (inactive)
GI50 (HCT-15): > 100 µM
GI50 (ACHN): > 100 µM (inactive)
GI50 (DLD-1): > 100 µM (inactive)
GI50 (HCT-116): > 100 µM (inactive)
GI50 (UACC-257): > 100 µM (inactive)
GI50 (OVCAR-8): > 100 µM (inactive)
GI50 (RPMI-8226): > 100 µM (inactive)
GI50 (MOLT-4): > 100 µM (inactive)
GI50 (TK-10): > 100 µM (inactive)
GI50 (OVCAR-5): > 100 µM (inactive)
GI50 (SK-MEL-5): > 100 µM (inactive)
GI50 (SN12C): > 100 µM (inactive)
GI50 (HL-60): > 100 µM (inactive)
GI50 (A498): > 100 µM (inactive)
GI50 (HT-29): > 100 µM (inactive)
GI50 (U-251): > 100 µM (inactive)
GI50 (LXFL 529): > 100 µM (inactive)
GI50 (EKVX): > 100 µM (inactive)
GI50 (SF-539): > 100 µM (inactive)
GI50 (UACC-62): > 100 µM (inactive)

CC(=O)OCC1OC(n2c(=S)n(-c3ccccc3)c(=S)c3ccccc32)C(OC(C)=O)C(OC(C)=O)C1OC(C)=O (stereo not drawn)
GI50 (RXF 631): > 57.3 µM (inactive) and 71.4 µM (inactive)
GI50 (786-0): > 80.9 µM (inactive) and 62.8 µM (inactive)
GI50 (HOP-18): 6.87 µM (inactive)
GI50 (HOP-92): > 37.7 µM (inactive) and 41.1 µM (inactive)
GI50 (HCT-116): > 89.1 µM (inactive) and 57 µM (inactive)
GI50 (TK-10): 16.9 µM (inactive)
GI50 (SF-539): 43.9 µM (inactive) and 48.5 µM (inactive)

Nc1c(S(=O)(=O)c2ccccc2)c2nc3ccccc3nc2n2c1nc1ccccc12
GI50 (A549): > 51.5 µM (inactive)
GI50 (DMS-273): 7.67 µM (inactive)
GI50 (RXF 631): 16.9 µM (inactive)
GI50 (SW-620): > 68.2 µM (inactive)
GI50 (KM12): > 64 µM (inactive)
GI50 (SNB-75): 7.83 µM (inactive)
GI50 (IGROV-1): > 57.3 µM (inactive)
GI50 (NCI-H23): 19.4 µM (inactive)
GI50 (HCC 2998): > 78.5 µM (inactive)
GI50 (M19-MEL): 29.8 µM (inactive)
GI50 (HOP-62): 19.4 µM (inactive)
GI50 (COLO 205): > 100 µM (inactive)
GI50 (XF498): 11.8 µM (inactive)
GI50 (LOX IMVI): > 60.8 µM (inactive)
GI50 (NCI-H522): 36.5 µM (inactive)
GI50 (786-0): 8.09 µM (inactive)
GI50 (SF-268): > 45.3 µM (inactive)
GI50 (NCI-H460): 34.3 µM (inactive)
GI50 (OVCAR-4): 19.8 µM (inactive)
GI50 (SR): > 71.6 µM (inactive)
GI50 (NCI-H226): 37.5 µM (inactive)
GI50 (RXF 393): > 100 µM (inactive)
GI50 (SF-295): > 34.7 µM (inactive)
GI50 (SK-MEL-28): 10.4 µM (inactive)
GI50 (UO-31): > 100 µM (inactive)
GI50 (CAKI-1): > 54.1 µM (inactive)
GI50 (K562): 22.4 µM (inactive)
GI50 (SNB-78): 26.4 µM (inactive)
GI50 (Malme-3M): 19.5 µM (inactive)
GI50 (OVCAR-3): > 25.4 µM (inactive)
GI50 (SK-MEL-2): > 55.3 µM (inactive)
GI50 (M14): 16.2 µM (inactive)
GI50 (KM-20L2): > 100 µM (inactive)
GI50 (CCRF-CEM): > 39.2 µM (inactive)
GI50 (SNB-19): > 51.8 µM (inactive)
GI50 (SK-OV-3): > 100 µM (inactive)
GI50 (HCT-15): 36.1 µM
GI50 (DMS-114): > 69.3 µM (inactive)
GI50 (HOP-92): > 100 µM (inactive)
GI50 (ACHN): > 64.4 µM (inactive)
GI50 (DLD-1): > 86.1 µM (inactive)
GI50 (HCT-116): 56.2 µM (inactive)
GI50 (UACC-257): > 51.5 µM (inactive)
GI50 (OVCAR-8): 20.1 µM (inactive)
GI50 (RPMI-8226): > 100 µM (inactive)
GI50 (MOLT-4): > 29.4 µM (inactive)
GI50 (TK-10): > 100 µM (inactive)
GI50 (OVCAR-5): > 100 µM (inactive)
GI50 (SK-MEL-5): 32.4 µM (inactive)
GI50 (SN12C): > 48.1 µM (inactive)
GI50 (HL-60): > 100 µM (inactive)
GI50 (A498): > 100 µM (inactive)
GI50 (HT-29): > 84.1 µM (inactive)
GI50 (U-251): 24.7 µM (inactive)
GI50 (LXFL 529): > 52 µM (inactive)
GI50 (EKVX): > 68.5 µM (inactive)
GI50 (SF-539): 11.1 µM (inactive)
GI50 (UACC-62): > 62.8 µM (inactive)
